Measurements reported in ChEMBL document CHEMBL1133325, “Synthesis and biological activity of fluoro-substituted pyrrolo[2,3-d]pyrimidines: the development of potential positron emission tomography imaging agents for the corticotropin-releasing hormone type 1 receptor” (Bioorg Med Chem Lett, 2000).

Each compound was assayed against T1, Corticotropin-releasing factor receptor 1 (Rattus norvegicus, UniProt P35353) (assay: Compound was tested in vitro for its ability to displace [125 I]Tyr-sauvagine from corticotropin-releasing hormone type 1 receptor in rat cerebellum).
T1 sequence (P35353 whole entry): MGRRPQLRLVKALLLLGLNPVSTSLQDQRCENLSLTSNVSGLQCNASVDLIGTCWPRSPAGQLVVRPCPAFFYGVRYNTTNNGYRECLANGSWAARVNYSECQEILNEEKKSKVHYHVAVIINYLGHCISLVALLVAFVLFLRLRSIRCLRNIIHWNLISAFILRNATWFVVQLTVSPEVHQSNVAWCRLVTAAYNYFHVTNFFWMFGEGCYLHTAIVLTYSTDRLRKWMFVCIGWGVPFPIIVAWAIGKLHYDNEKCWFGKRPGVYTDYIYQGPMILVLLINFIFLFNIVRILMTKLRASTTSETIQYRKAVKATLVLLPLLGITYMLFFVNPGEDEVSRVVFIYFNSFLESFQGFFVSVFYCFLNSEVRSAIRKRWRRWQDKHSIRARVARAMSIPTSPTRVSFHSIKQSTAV
Type: tissue-based

SMILES	Ki [nM]
CCCCN(CC)c1nc(C)nc2c1c(C)c(C)n2-c1c(C)cc(C)cc1C [ANTALARMIN]	2.5
CCCN(CCCCF)c1nc(C)nc2c1c(C)c(C)n2-c1c(C)cc(C)cc1C	0.91
Cc1cc(C)c(-n2c(C)c(C)c3c(N(CCCF)CC4CC4)nc(C)nc32)c(C)c1	30
CCN(CCCCF)c1nc(C)nc2c1c(C)c(C)n2-c1c(C)cc(C)cc1C	3.5
Cc1cc(C)c(-n2c(C)c(C)c3c(N4CCN(CCF)CC4)nc(C)nc32)c(C)c1	> 1000
CCCCN(CCCCF)c1nc(C)nc2c1c(C)c(C)n2-c1c(C)cc(C)cc1C	10
CCCN(CC1CC1)c1nc(C)nc2c1c(C)c(C)n2-c1c(C)cc(C)cc1C	2.3
